Reference: ChEMBL document CHEMBL3885861, “Open TG-GATES”

Organism: Rattus norvegicus
Experiment: Open TG-GATES - Regimen: Daily Repeat
Format: toxicity, organism-based, Sprague-Dawley
Parameters: regimen Daily Repeat, gender Male, age 6 weeks
Conditions: in vivo, po, 10 mg/kg, route gavage, dose level Low; for APTT / Bas / Eos / Fbg / Hb / Ht / Lym / MCH / MCHC / MCV / Mono / Neu / PT / Plat / RBC / Ret / WBC: tissue Blood; for KIDNEY_L / KIDNEY_R / KIDNEY_TOTAL: tissue Kidney; for LIVER: tissue Liver; for A/G / ALP / ALT / AST / BUN / CRE / Ca / Cl / DBIL / GLC / IP / K / LDH / Na / PL / RALB / TBIL / TC / TG / TP / gamma-GTP: tissue Plasma

CCC1(c2ccccc2)C(=O)NC(=O)NC1=O [PHENOBARBITAL]
TERMINAL_BW (72 h, time 3 day): 224.1 g
APTT (72 h, time 3 day): 15.6 s
Bas (72 h, time 3 day): 0%
Eos (72 h, time 3 day): 1%
Fbg (72 h, time 3 day): 226.8 mg/dL
Hb (72 h, time 3 day): 13.3 g/dL
Ht (72 h, time 3 day): 39.6%
Lym (72 h, time 3 day): 71.6%
MCH (72 h, time 3 day): 22 pg
MCHC (72 h, time 3 day): 33.6%
MCV (72 h, time 3 day): 65.5 fL
Mono (72 h, time 3 day): 11.4%
Neu (72 h, time 3 day): 16.4%
PT (72 h, time 3 day): 11.9 s
Plat (72 h, time 3 day): 126.7 x10_4/uL
RBC (72 h, time 3 day): 605.2 x10_4/ul
Ret (72 h, time 3 day): 7.9%
WBC (72 h, time 3 day): 126 x10_2/uL
KIDNEY_L (72 h, time 3 day): 1 g
KIDNEY_R (72 h, time 3 day): 1 g
KIDNEY_TOTAL (72 h, time 3 day): 2 g
LIVER (72 h, time 3 day): 12 g
A/G (72 h, time 3 day): 1.5
ALP (72 h, time 3 day): 757.2 IU/L
ALT (72 h, time 3 day): 34.6 IU/L
AST (72 h, time 3 day): 61.6 IU/L
BUN (72 h, time 3 day): 15.2 mg/dL
CRE (72 h, time 3 day): 0.5 mg/dL
Ca (72 h, time 3 day): 10.6 mg/dL
Cl (72 h, time 3 day): 106.6 meq/L
DBIL (72 h, time 3 day): 0.018 mg/dL
GLC (72 h, time 3 day): 197.2 mg/dL
IP (72 h, time 3 day): 8.3 mg/dL
K (72 h, time 3 day): 4.8 meq/L
LDH (72 h, time 3 day): 106.8 IU/L
Na (72 h, time 3 day): 139 meq/L
PL (72 h, time 3 day): 147.8 mg/dL
RALB (72 h, time 3 day): 3.5 g/dL
TBIL (72 h, time 3 day): 0.3 mg/dL
TC (72 h, time 3 day): 83.4 mg/dL
TG (72 h, time 3 day): 104.8 mg/dL
TP (72 h, time 3 day): 5.8 g/dL
gamma-GTP (72 h, time 3 day): 1.6 IU/L
TERMINAL_BW ([…], time 7 day): 253.6 g
TERMINAL_BW ([…], time 14 day): 311.1 g
TERMINAL_BW ([…], time 28 day): 391.1 g
APTT ([…], time 7 day): 16.3 s
Bas ([…], time 7 day): 0%
Eos ([…], time 7 day): 1%
Fbg ([…], time 7 day): 236 mg/dL
Hb ([…], time 7 day): 13.8 g/dL
Ht ([…], time 7 day): 41.2%
Lym ([…], time 7 day): 80.6%
MCH ([…], time 7 day): 21.8 pg
MCHC ([…], time 7 day): 33.4%
MCV ([…], time 7 day): 65.2 fL
Mono ([…], time 7 day): 3%
Neu ([…], time 7 day): 15.4%
PT ([…], time 7 day): 11.6 s
Plat ([…], time 7 day): 113.9 x10_4/uL
RBC ([…], time 7 day): 632.6 x10_4/ul
Ret ([…], time 7 day): 6.6%
WBC ([…], time 7 day): 95.6 x10_2/uL
APTT ([…], time 14 day): 16.6 s
Bas ([…], time 14 day): 0%
Eos ([…], time 14 day): 0.2%
Fbg ([…], time 14 day): 234.6 mg/dL
Hb ([…], time 14 day): 15 g/dL
Ht ([…], time 14 day): 45.1%
Lym ([…], time 14 day): 84.6%
MCH ([…], time 14 day): 20.6 pg
MCHC ([…], time 14 day): 33.3%
MCV ([…], time 14 day): 61.7 fL
Mono ([…], time 14 day): 5.8%
Neu ([…], time 14 day): 9.6%
PT ([…], time 14 day): 11.4 s
Plat ([…], time 14 day): 114.1 x10_4/uL
RBC ([…], time 14 day): 731.2 x10_4/ul
Ret ([…], time 14 day): 5%
WBC ([…], time 14 day): 141.4 x10_2/uL
APTT ([…], time 28 day): 17.6 s
Bas ([…], time 28 day): 0%
Eos ([…], time 28 day): 1%
Fbg ([…], time 28 day): 226.6 mg/dL
Hb ([…], time 28 day): 15 g/dL
Ht ([…], time 28 day): 43.9%
Lym ([…], time 28 day): 86.6%
MCH ([…], time 28 day): 20.1 pg
MCHC ([…], time 28 day): 34.1%
MCV ([…], time 28 day): 58.9 fL
Mono ([…], time 28 day): 3.8%
Neu ([…], time 28 day): 8.8%
PT ([…], time 28 day): 12.1 s
Plat ([…], time 28 day): 97.5 x10_4/uL
RBC ([…], time 28 day): 746 x10_4/ul
Ret ([…], time 28 day): 2.9%
WBC ([…], time 28 day): 114.8 x10_2/uL
KIDNEY_L ([…], time 7 day): 1.1 g
KIDNEY_R ([…], time 7 day): 1.1 g
KIDNEY_TOTAL ([…], time 7 day): 2.1 g
KIDNEY_L ([…], time 14 day): 1.2 g
KIDNEY_R ([…], time 14 day): 1.2 g
KIDNEY_TOTAL ([…], time 14 day): 2.3 g
KIDNEY_L ([…], time 28 day): 1.4 g
KIDNEY_R ([…], time 28 day): 1.3 g
KIDNEY_TOTAL ([…], time 28 day): 2.7 g
LIVER ([…], time 7 day): 13.7 g
LIVER ([…], time 14 day): 15.6 g
LIVER ([…], time 28 day): 16.8 g
A/G ([…], time 7 day): 1.5
ALP ([…], time 7 day): 686.4 IU/L
ALT ([…], time 7 day): 28 IU/L
AST ([…], time 7 day): 57 IU/L
BUN ([…], time 7 day): 18.4 mg/dL
CRE ([…], time 7 day): 0.6 mg/dL
Ca ([…], time 7 day): 10.9 mg/dL
Cl ([…], time 7 day): 105.2 meq/L
DBIL ([…], time 7 day): 0.034 mg/dL
GLC ([…], time 7 day): 210 mg/dL
IP ([…], time 7 day): 8.5 mg/dL
K ([…], time 7 day): 4.7 meq/L
LDH ([…], time 7 day): 86.8 IU/L
Na ([…], time 7 day): 139.6 meq/L
PL ([…], time 7 day): 161.2 mg/dL
RALB ([…], time 7 day): 3.6 g/dL
TBIL ([…], time 7 day): 0.4 mg/dL
TC ([…], time 7 day): 82.4 mg/dL
TG ([…], time 7 day): 129.2 mg/dL
TP ([…], time 7 day): 6 g/dL
gamma-GTP ([…], time 7 day): 1.2 IU/L
A/G ([…], time 14 day): 1.6
ALP ([…], time 14 day): 858.8 IU/L
ALT ([…], time 14 day): 33.8 IU/L
AST ([…], time 14 day): 63.2 IU/L
BUN ([…], time 14 day): 17.8 mg/dL
CRE ([…], time 14 day): 0.6 mg/dL
Ca ([…], time 14 day): 11.3 mg/dL
Cl ([…], time 14 day): 106 meq/L
DBIL ([…], time 14 day): 0.004 mg/dL
GLC ([…], time 14 day): 193.8 mg/dL
IP ([…], time 14 day): 9.1 mg/dL
K ([…], time 14 day): 4.7 meq/L
LDH ([…], time 14 day): 100 IU/L
Na ([…], time 14 day): 141.6 meq/L
PL ([…], time 14 day): 162.8 mg/dL
RALB ([…], time 14 day): 4 g/dL
TBIL ([…], time 14 day): 0.2 mg/dL
TC ([…], time 14 day): 83.8 mg/dL
TG ([…], time 14 day): 127.6 mg/dL
TP ([…], time 14 day): 6.6 g/dL
gamma-GTP ([…], time 14 day): 1 IU/L
A/G ([…], time 28 day): 1.6
ALP ([…], time 28 day): 707.4 IU/L
ALT ([…], time 28 day): 29.6 IU/L
AST ([…], time 28 day): 56.2 IU/L
BUN ([…], time 28 day): 21.6 mg/dL
CRE ([…], time 28 day): 0.3 mg/dL
Ca ([…], time 28 day): 10.3 mg/dL
Cl ([…], time 28 day): 108.4 meq/L
DBIL ([…], time 28 day): 0.026 mg/dL
GLC ([…], time 28 day): 195.8 mg/dL
IP ([…], time 28 day): 7.4 mg/dL
K ([…], time 28 day): 5 meq/L
LDH ([…], time 28 day): 84.2 IU/L
Na ([…], time 28 day): 139.8 meq/L
PL ([…], time 28 day): 148 mg/dL
RALB ([…], time 28 day): 3.9 g/dL
TBIL ([…], time 28 day): 0.4 mg/dL
TC ([…], time 28 day): 69.6 mg/dL
TG ([…], time 28 day): 164.4 mg/dL
TP ([…], time 28 day): 6.3 g/dL
gamma-GTP ([…], time 28 day): 1.4 IU/L
